Data from patent US20230203081A1, “LINCOSAMIDE ANTIBIOTICS AND USES THEREOF” (President and Fellows of Harvard College, priority 2020, published 2023).
Values after ≈ are worked out from the molar mass of the structure shown.

Assays:
Type in all cases: cell-based
E. faecalis ATCC 29212 = assay: MIC (broth microdilution or agar dilution, CLSI); conditions: Enterococcus faecalis, ATCC29212, E. faecalis ATCC 29212; read-out: MIC
Experimental: (§1) Minimum inhibitory concentrations (MICs) were determined by broth microdilution method or agar dilution method following the Clinical and Laboratory Standards Institute guidelines. Standard bacterial strains were obtained from American Type Culture Collection (ATCC). Other bacterial strains were obtained from hospitals and commercial sources, so noted in Table 11. […] Specialized procedures were employed for streptococcal and anaerobic strains. All other bacterial strains were sub-cultured on blood agar plates (tryptic soy agar with 5% sheep blood, Hardy Diagnostics) and incubated overnight at 35° C. […] Suspensions were further diluted to obtain a final inoculum of 5×10^5 CFU/mL for broth microdilution experiments.

S. pneumoniae ATCC 49619 = assay: MIC (broth microdilution or agar dilution, CLSI); conditions: Streptococcus pneumoniae, ATCC49619, S. pneumoniae ATCC 49619; read-out: MIC
Experimental: as §1

E. coli LptD = assay: MIC (broth microdilution or agar dilution, CLSI); conditions: Escherichia coli, E. coli LptD; read-out: MIC
Experimental: as §1

E. coli ATCC 25922 = assay: MIC (broth microdilution or agar dilution, CLSI); conditions: Escherichia coli, ATCC25922; E. coli ATCC 25922; read-out: MIC
Experimental: as §1

S. pyogenes ATCC 19615 = assay: MIC (broth microdilution or agar dilution, CLSI); conditions: Streptococcus pyogenes, ATCC19615, S. pyogenes ATCC 19615; read-out: MIC
Experimental: as §1

S. aureus ATCC 29213 = assay: MIC (broth microdilution or agar dilution, CLSI); conditions: Staphylococcus aureus, ATCC29213, S. aureus ATCC 29213; read-out: MIC
Experimental: as §1

K. oxytoca Clinical = assay: MIC (broth microdilution or agar dilution, CLSI); conditions: Klebsiella oxytoca; K. oxytoca Clinical; read-out: MIC
Experimental: as §1

E. coli ΔTolC = assay: microbe, parasite or virus in culture; conditions: Escherichia coli, E. coli ΔTolC
Experimental: as §1

S. aureus cErmA = assay: MIC (broth microdilution or agar dilution, CLSI); conditions: Staphylococcus aureus; S. aureus cErmA; read-out: MIC
Experimental: (§2) Minimum inhibitory concentrations (MICs) were determined by broth microdilution method or agar dilution method following the Clinical and Laboratory Standards Institute guidelines. Standard bacterial strains were obtained from American Type Culture Collection (ATCC). Other bacterial strains were obtained from hospitals and commercial sources, so noted in Table 11. Before the start of the MIC experiment, standard and test compound stock solutions were prepared in dimethyl sulfoxide (DMSO, Aldrich D2650) at a stock concentration of 5,120 μg/mL. The compound concentration range typically employed for each experiment was 128-0.06 μg/mL (2.5% final DMSO concentration). Clindamycin was used as a comparator in all experiments and each experiment was performed in triplicate. Specialized procedures were employed for streptococcal and anaerobic strains. All other bacterial strains were sub-cultured on blood agar plates (tryptic soy agar with 5% sheep blood, Hardy Diagnostics) and incubated overnight at 35° C. Organisms were suspended in cation-adjusted Mueller-Hinton broth (CaMHB, BD 212322) and optical density was adjusted to 0.5 McFarland standard. Suspensions were further diluted to obtain a final inoculum of 5×10^5 CFU/mL for broth microdilution experiments.

E. faecium Clinical VRE = assay: MIC (broth microdilution or agar dilution, CLSI); conditions: Enterococcus faecium; E. faecium Clinical VRE; read-out: MIC
Experimental: as §2

[1] = tested on: broad panel of different clinical isolates; assay: microbe, parasite or virus in culture; conditions: Staphylococcus aureus, norA
Experimental: as §1

Row | Compound | MIC (E. faecalis ATCC 29212) [µg/mL] | MIC (S. pneumoniae ATCC 49619) [µg/mL] | MIC (E. coli LptD) [µg/mL] | MIC (E. coli ATCC 25922) [µg/mL] | MIC (S. pyogenes ATCC 19615) [µg/mL] | MIC (S. aureus ATCC 29213) [µg/mL] | MIC (K. oxytoca Clinical) [µg/mL] | MIC (E. coli ΔTolC) [µg/mL] | MIC (S. aureus cErmA) [µg/mL] | MIC (E. faecium Clinical VRE) [µg/mL] | MIC ([1]; S. aureus HAV#051, mecA, spcl, ermA, aad1, aac6′-aph2″) [µg/mL] | MIC ([1]; S. aureus HAV#052, mecA, fosB, blaZ) [µg/mL] | MIC ([1]; S. aureus HAV#053 mecA, fosB) [µg/mL] | MIC ([1]; S. aureus HAV#054, mecA, spcl, aad1, fosB, ermA, aac6′-aph2″, blaZ) [µg/mL]
1 | CS[C@H]1O[C@H]([C@H](NC(=O)[C@H]2NC[C@@H]3C[C@H](CC(C)C)CCO[C@H]32)C(C)C(F)(F)F)[C@H](O)[C@H](O)[C@H]1O (mixture of isomers) [FSA-09-04-081, (4S,5aS,8S,8aR)-4-Isobutyl-N-((1R)-3,3,3-trifluoro-2-methyl-1-((2R,3R,4S,5R,6R)-3,4,5-trihydroxy-6-(methylthio)tetrahydro-2H-pyran-2-yl)propyl)octahydro-2H-oxepino[2,3-c]pyrrole-8-carboxamide] | 0.125 (≈ 0.236 µM) | 0.125 (≈ 0.236 µM) | 2 (≈ 3.78 µM) | 32 (≈ 60.5 µM) | 0.125 (≈ 0.236 µM) | 0.125 (≈ 0.236 µM) | 32 (≈ 60.5 µM) | 2 (≈ 3.78 µM) | 8 (≈ 15.1 µM) | 0.25 (≈ 0.473 µM) |  |  |  | 
2 | NCC[C@H](O)C(=O)N[C@@H]1C[C@H](N)[C@@H](O[C@H]2O[C@H](CN)[C@@H](O)[C@H](O)[C@H]2O)[C@H](O)[C@H]1O[C@H]1O[C@H](CO)[C@@H](O)[C@H](N)[C@H]1O [Amikacin] |  |  |  |  |  |  |  |  |  |  | 4 (≈ 6.83 µM) | 4 (≈ 6.83 µM) | 4 (≈ 6.83 µM) | 64 (≈ 109 µM)
3 | CS[C@H]1O[C@H]([C@H](NC(=O)[C@H]2NC[C@@H]3C[C@H](CC(C)C)CCO[C@H]32)[C@@H](C)O)[C@H](O)[C@H](O)[C@H]1O [FSA-09-04-072, (4S,5aS,8S,8aR)-N-((1R,2R)-2-Hydroxy-1-((2R,3R,4S,5R,6R)-3,4,5-trihydroxy-6-(methylthio)tetrahydro-2H-pyran-2-yl)propyl)-4-isobutyloctahydro-2H-oxepino[2,3-c]pyrrole-8-carboxamide] | 0.25 (≈ 0.525 µM) | 0.5 (≈ 1.05 µM) | 2 (≈ 4.2 µM) | 16 (≈ 33.6 µM) | 0.5 (≈ 1.05 µM) | 1 (≈ 2.1 µM) | 16 (≈ 33.6 µM) | 1 (≈ 2.1 µM) | 32 (≈ 67.1 µM) | 0.5 (≈ 1.05 µM) |  |  |  | 
4 | CS[C@H]1O[C@H]([C@H](NC(=O)[C@H]2NC[C@@H]3C[C@H](CC(C)C)CCO[C@H]32)[C@H](C)Sc2ccc(CCN(C)C)cc2)[C@H](O)[C@H](O)[C@H]1O [FSA-09-04-087, (4S,5aS,8S,8aR)-N-((1S,2S)-2-((4-(2-(Dimethylamino)ethyl)phenyl)thio)-1-((2R,3R,4S,5R,6R)-3,4,5-trihydroxy-6-(methylthio)tetrahydro-2H-pyran-2-yl)propyl)-4-isobutyloctahydro-2H-oxepino[2,3-c]pyrrole-8-carboxamide] | 0.5 (≈ 0.781 µM) | 0.5 (≈ 0.781 µM) | 1 (≈ 1.56 µM) | 16 (≈ 25 µM) | 0.5 (≈ 0.781 µM) | 1 (≈ 1.56 µM) | 16 (≈ 25 µM) | 1 (≈ 1.56 µM) | 8 (≈ 12.5 µM) | 4 (≈ 6.25 µM) |  |  |  | 
5 | CS[C@H]1O[C@H]([C@H](NC(=O)[C@H]2NC[C@@H]3C[C@H](CC(C)C)CCO[C@H]32)[C@H](C)Sc2nnc(N)s2)[C@H](O)[C@H](O)[C@H]1O [FSA-09-04-094, (4S,5aS,8S,8aR)-N-((1S,2S)-2-((5-Amino-1,3,4-thiadiazol-2-yl)thio)-1-((2R,3R,4S,5R,6R)-3,4,5-trihydroxy-6-(methylthio)tetrahydro-2H-pyran-2-yl)propyl)-4-isobutyloctahydro-2H-oxepino[2,3-c]pyrrole-8-carboxamide] | 2 (≈ 3.38 µM) | 0.5 (≈ 0.845 µM) | 64 (≈ 108 µM) | > 128 | 1 (≈ 1.69 µM) | 4 (≈ 6.76 µM) | > 128 | 32 (≈ 54.1 µM) | 128 (≈ 216 µM) | 128 (≈ 216 µM) |  |  |  | 
6 | CS[C@H]1O[C@H]([C@H](NC(=O)[C@H]2NC[C@@H]3C[C@H](CC(C)C)CCO[C@H]32)[C@H](C)Sc2nnc(N3CCNCC3)s2)[C@H](O)[C@H](O)[C@H]1O [FSA-09-05-011, (4S,5aS,8S,8aR)-4-Isobutyl-N-((1S,2S)-2-((5-(piperazin-1-yl)-1,3,4-thiadiazol-2-yl)thio)-1-((2R,3R,4S,5R,6R)-3,4,5-trihydroxy-6-(methylthio)tetrahydro-2H-pyran-2-yl)propyl)octahydro-2H-oxepino[2,3-c]pyrrole-8-carboxamide] | 2 (≈ 3.03 µM) | 1 (≈ 1.51 µM) | 8 (≈ 12.1 µM) | 32 (≈ 48.4 µM) | 1 (≈ 1.51 µM) | 4 (≈ 6.05 µM) | 64 (≈ 96.8 µM) | 2 (≈ 3.03 µM) | 64 (≈ 96.8 µM) | 32 (≈ 48.4 µM) |  |  |  | 
7 | CS[C@H]1O[C@H]([C@H](NC(=O)[C@H]2NC[C@@H]3C[C@H](CC(C)C)CCO[C@H]32)[C@H](C)Sc2ccc(CN3CCOCC3)cc2)[C@H](O)[C@H](O)[C@H]1O [FSA-09-05-68, (4S,5aS,8S,8aR)-4-Isobutyl-N-((1S,2S)-2-((4-(morpholinomethyl)phenyl)thio)-1-((2R,3R,4S,5R,6R)-3,4,5-trihydroxy-6-(methylthio)tetrahydro-2H-pyran-2-yl)propyl)octahydro-2H-oxepino[2,3-c]pyrrole-8-carboxamide] | 1 (≈ 1.5 µM) | 0.125 (≈ 0.187 µM) | 2 (≈ 2.99 µM) | 32 (≈ 47.9 µM) | 0.25 (≈ 0.374 µM) | 2 (≈ 2.99 µM) | 32 (≈ 47.9 µM) | 2 (≈ 2.99 µM) | 8 (≈ 12 µM) | 4 (≈ 5.99 µM) |  |  |  | 
8 | CS[C@H]1O[C@H]([C@H](NC(=O)[C@H]2NC[C@@H]3C[C@H](CC(C)C)CCO[C@H]32)[C@H](C)Sc2ccc(CO)cc2)[C@H](O)[C@H](O)[C@H]1O [FSA-09-05-069, (4S,5aS,8S,8aR)-N-((1S,2S)-2-((4-(Hydroxymethyl)phenyl)thio)-1-((2R,3R,4S,5R,6R)-3,4,5-trihydroxy-6-(methylthio)tetrahydro-2H-pyran-2-yl)propyl)-4-isobutyloctahydro-2H-oxepino[2,3-c]pyrrole-8-carboxamide] | 1 (≈ 1.67 µM) | 0.125 (≈ 0.209 µM) | 16 (≈ 26.7 µM) | 128 (≈ 214 µM) | 0.25 (≈ 0.417 µM) | 1 (≈ 1.67 µM) | 128 (≈ 214 µM) | 4 (≈ 6.68 µM) | 64 (≈ 107 µM) | 16 (≈ 26.7 µM) |  |  |  | 
9 | CS[C@H]1O[C@H]([C@H](NC(=O)[C@H]2NC[C@@H]3C[C@H](CC(C)C)CCO[C@H]32)[C@H](C)Sc2ccc(-c3cccnc3)cc2)[C@H](O)[C@H](O)[C@H]1O [FSA-09-05-074, (4S,5aS,8S,8aR)-4-Isobutyl-N-((1S,2S)-2-((4-(pyridin-3-yl)phenyl)thio)-1-((2R,3R,4S,5R,6R)-3,4,5-trihydroxy-6-(methylthio)tetrahydro-2H-pyran-2-yl)propyl)octahydro-2H-oxepino[2,3-c]pyrrole-8-carboxamide] | 0.5 (≈ 0.774 µM) | 0.125 (≈ 0.194 µM) | 4 (≈ 6.19 µM) | 32 (≈ 49.5 µM) | 0.25 (≈ 0.387 µM) | 1 (≈ 1.55 µM) | 32 (≈ 49.5 µM) | 4 (≈ 6.19 µM) | 2 (≈ 3.1 µM) | 2 (≈ 3.1 µM) |  |  |  | 
